Values quoted from earlier work, collected in paper PMC9851200, “Multiparameter phenotypic screening for endogenous TFEB and TFE3 translocation identifies novel chemical series modulating lysosome function” (Autophagy, 2022).

How the values were obtained:
Design in all cases: method as in original PKIS2 published data
[1] = biological target: T1, kinases (KINOMEscan panel) (Homo sapiens, UniProt O75385); conditions: Published KINOMEscan; ref original PKIS2 published data; cited from earlier work
T1 sequence (O75385 1-1050): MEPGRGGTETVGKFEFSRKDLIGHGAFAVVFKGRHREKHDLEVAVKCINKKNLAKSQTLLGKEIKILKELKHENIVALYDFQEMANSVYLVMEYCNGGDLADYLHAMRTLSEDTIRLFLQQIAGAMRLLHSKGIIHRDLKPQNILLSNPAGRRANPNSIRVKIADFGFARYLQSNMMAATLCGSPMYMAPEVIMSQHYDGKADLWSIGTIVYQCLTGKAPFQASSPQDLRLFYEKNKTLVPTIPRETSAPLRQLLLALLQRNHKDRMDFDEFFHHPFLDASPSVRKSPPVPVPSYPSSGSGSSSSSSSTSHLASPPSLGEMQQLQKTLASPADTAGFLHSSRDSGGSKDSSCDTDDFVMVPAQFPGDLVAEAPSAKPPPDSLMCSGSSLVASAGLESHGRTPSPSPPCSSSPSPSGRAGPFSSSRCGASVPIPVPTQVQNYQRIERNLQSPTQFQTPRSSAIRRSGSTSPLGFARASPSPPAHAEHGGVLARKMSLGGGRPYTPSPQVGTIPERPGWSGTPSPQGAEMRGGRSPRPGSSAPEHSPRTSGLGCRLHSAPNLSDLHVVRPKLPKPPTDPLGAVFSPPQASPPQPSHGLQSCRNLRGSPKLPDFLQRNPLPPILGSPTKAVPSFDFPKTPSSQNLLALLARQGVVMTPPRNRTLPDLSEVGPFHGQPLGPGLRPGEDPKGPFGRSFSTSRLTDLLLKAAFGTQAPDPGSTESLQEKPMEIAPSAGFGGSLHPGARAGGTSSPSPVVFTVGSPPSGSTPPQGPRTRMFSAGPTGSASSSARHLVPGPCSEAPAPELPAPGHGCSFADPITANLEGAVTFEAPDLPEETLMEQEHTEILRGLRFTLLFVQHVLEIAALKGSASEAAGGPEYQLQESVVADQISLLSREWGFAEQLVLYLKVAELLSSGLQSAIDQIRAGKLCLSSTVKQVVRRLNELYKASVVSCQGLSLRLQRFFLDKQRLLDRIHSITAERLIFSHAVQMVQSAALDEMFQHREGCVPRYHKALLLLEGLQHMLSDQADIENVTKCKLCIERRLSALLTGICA

[2] = biological target: kinases (KINOMEscan panel) (Homo sapiens, UniProt P08631); conditions: kinase HCK; Published KINOMEscan; ref original PKIS2 published data; cited from earlier work
kinases (KINOMEscan panel) (Homo sapiens, UniProt P08631), sequence (P08631 whole entry): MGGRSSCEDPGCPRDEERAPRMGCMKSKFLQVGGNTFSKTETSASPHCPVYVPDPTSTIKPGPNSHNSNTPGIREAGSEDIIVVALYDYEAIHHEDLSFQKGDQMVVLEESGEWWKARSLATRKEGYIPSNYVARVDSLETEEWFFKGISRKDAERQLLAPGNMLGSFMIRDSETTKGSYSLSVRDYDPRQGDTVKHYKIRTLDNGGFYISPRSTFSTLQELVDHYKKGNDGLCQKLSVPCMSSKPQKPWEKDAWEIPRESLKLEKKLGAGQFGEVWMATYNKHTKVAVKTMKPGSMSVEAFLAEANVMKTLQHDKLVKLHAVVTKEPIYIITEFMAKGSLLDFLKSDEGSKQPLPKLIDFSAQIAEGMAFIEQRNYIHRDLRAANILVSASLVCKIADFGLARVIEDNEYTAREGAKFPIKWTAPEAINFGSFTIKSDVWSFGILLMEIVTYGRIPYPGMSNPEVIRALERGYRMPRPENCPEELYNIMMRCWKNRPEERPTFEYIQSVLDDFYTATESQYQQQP

[3] = biological target: kinases (KINOMEscan panel) (Homo sapiens, UniProt P19525); conditions: kinase ElF2AK2; Published KINOMEscan; ref original PKIS2 published data; cited from earlier work
kinases (KINOMEscan panel) (Homo sapiens, UniProt P19525), sequence (P19525 whole entry): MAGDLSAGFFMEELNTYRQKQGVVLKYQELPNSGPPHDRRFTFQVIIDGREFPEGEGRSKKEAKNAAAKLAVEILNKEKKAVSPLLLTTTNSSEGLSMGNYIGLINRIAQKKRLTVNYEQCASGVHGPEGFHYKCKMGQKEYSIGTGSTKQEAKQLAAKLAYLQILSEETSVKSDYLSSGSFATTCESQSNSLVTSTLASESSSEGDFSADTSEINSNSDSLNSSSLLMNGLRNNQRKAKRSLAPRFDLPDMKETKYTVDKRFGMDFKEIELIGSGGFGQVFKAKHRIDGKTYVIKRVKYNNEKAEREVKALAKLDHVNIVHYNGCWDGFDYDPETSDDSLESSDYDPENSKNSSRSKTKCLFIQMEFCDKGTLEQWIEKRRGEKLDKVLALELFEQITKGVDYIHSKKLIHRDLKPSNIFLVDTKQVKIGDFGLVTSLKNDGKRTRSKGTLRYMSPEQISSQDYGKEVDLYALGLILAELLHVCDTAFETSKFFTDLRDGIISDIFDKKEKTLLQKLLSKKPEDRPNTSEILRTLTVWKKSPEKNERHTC

[4] = biological target: kinases (KINOMEscan panel) (Homo sapiens, UniProt P21127); conditions: CDK11B; Published KINOMEscan; ref original PKIS2 published data; cited from earlier work
kinases (KINOMEscan panel) (Homo sapiens, UniProt P21127), sequence (P21127 whole entry): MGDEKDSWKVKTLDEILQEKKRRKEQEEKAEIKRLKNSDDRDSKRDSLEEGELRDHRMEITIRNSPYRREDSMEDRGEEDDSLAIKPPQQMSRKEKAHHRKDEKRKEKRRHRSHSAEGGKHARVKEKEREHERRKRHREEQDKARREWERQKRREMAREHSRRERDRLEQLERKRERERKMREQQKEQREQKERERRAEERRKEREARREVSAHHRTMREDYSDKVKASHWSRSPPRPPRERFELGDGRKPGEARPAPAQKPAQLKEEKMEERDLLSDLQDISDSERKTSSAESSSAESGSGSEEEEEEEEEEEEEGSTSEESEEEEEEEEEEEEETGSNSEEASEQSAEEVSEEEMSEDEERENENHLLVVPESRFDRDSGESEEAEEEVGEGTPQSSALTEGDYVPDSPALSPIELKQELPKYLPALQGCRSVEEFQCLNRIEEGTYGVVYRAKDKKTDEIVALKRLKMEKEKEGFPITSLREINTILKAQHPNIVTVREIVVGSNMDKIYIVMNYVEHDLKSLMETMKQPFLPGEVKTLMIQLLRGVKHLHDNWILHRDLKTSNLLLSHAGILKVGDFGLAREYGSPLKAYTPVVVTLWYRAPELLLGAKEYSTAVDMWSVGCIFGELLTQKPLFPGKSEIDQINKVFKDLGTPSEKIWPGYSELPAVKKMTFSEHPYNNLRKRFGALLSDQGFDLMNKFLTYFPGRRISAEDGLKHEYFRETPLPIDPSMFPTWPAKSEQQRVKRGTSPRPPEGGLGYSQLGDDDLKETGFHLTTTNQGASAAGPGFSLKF

[5] = biological target: kinases (KINOMEscan panel) (Homo sapiens, UniProt P57059); conditions: kinase SIK1; Published KINOMEscan; ref original PKIS2 published data; cited from earlier work
kinases (KINOMEscan panel) (Homo sapiens, UniProt P57059), sequence (P57059 whole entry): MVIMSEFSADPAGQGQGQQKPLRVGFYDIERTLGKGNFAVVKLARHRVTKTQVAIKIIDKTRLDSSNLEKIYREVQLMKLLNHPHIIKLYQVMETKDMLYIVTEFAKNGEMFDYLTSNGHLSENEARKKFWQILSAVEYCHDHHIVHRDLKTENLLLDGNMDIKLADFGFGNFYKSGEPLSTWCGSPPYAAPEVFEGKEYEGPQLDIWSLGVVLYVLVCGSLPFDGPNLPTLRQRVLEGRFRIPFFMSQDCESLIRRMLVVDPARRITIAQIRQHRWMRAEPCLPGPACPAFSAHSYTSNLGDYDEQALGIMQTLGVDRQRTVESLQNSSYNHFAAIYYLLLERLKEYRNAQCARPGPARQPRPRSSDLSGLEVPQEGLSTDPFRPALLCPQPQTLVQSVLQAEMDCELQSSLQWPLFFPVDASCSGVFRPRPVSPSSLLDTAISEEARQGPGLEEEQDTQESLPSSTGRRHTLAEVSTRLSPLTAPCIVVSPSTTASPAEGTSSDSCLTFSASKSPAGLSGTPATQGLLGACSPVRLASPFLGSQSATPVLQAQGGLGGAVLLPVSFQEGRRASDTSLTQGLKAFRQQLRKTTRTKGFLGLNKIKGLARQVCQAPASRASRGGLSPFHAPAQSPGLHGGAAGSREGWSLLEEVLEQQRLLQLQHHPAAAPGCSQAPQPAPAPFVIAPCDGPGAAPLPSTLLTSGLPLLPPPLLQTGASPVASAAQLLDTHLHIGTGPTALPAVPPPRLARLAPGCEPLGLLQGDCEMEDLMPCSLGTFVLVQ

[6] = biological target: T2, kinases (KINOMEscan panel) (Homo sapiens, UniProt Q8WXR4); conditions: MYO3B; Published KINOMEscan; ref original PKIS2 published data; cited from earlier work
T2 sequence (Q8WXR4 1-1341): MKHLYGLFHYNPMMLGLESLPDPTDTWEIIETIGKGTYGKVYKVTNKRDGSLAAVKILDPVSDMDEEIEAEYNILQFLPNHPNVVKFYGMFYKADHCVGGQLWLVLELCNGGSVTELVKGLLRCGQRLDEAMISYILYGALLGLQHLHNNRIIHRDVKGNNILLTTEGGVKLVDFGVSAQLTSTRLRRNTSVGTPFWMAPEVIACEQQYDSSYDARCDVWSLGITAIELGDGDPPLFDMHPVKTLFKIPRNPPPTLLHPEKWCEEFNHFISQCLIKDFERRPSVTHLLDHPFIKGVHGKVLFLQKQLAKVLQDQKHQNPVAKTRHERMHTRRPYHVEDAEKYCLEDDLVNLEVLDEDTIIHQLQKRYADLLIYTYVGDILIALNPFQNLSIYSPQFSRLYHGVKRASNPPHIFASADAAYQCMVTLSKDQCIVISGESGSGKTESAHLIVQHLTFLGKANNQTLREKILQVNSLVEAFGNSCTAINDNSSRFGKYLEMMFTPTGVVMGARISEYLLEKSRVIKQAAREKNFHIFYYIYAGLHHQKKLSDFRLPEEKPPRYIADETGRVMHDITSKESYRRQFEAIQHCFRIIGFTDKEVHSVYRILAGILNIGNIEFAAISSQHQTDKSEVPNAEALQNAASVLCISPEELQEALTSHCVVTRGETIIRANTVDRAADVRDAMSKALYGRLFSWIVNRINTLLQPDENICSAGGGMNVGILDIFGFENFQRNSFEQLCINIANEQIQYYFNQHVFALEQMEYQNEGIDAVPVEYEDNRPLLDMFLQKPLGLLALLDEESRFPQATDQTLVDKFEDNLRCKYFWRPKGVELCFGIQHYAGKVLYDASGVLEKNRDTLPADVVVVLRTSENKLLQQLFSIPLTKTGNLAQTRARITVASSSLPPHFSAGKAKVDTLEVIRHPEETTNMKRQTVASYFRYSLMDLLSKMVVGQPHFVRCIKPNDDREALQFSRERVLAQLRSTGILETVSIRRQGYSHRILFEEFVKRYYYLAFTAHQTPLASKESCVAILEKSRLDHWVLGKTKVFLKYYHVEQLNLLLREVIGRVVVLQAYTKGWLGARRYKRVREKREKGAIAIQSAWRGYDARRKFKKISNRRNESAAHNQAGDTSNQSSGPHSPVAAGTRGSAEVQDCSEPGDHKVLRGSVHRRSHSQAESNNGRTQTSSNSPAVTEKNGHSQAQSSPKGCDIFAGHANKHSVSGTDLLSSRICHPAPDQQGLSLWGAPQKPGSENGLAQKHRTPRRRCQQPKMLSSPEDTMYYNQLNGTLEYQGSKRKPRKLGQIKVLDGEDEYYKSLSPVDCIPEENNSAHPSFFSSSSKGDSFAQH

[7] = biological target: kinases (KINOMEscan panel) (Homo sapiens, UniProt Q96SB4); conditions: kinase SRPK1; Published KINOMEscan; ref original PKIS2 published data; cited from earlier work
kinases (KINOMEscan panel) (Homo sapiens, UniProt Q96SB4), sequence (Q96SB4 whole entry): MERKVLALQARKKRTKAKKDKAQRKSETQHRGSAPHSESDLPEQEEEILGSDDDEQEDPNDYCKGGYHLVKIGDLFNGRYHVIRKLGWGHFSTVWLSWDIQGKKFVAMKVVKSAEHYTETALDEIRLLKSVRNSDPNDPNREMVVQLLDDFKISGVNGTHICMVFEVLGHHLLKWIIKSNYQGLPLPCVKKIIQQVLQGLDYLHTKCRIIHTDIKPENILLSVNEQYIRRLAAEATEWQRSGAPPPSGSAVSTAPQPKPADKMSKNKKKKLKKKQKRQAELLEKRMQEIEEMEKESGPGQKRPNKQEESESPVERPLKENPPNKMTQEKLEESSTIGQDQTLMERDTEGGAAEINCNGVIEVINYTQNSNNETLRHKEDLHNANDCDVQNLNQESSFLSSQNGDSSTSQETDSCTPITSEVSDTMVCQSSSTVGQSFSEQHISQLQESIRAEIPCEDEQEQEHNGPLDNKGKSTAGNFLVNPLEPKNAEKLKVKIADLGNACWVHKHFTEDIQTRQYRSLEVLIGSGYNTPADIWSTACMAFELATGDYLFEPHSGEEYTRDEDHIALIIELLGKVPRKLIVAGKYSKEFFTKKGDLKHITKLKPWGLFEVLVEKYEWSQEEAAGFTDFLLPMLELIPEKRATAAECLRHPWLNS

Cc1cccc(-c2nc(Nc3ccncc3)c3ccccc3n2)n1 [NK215]
KINOMEscan ULK1 [1]: 0
KINOMEscan HCK [2]: 11
KINOMEscan ElF2AK2 [3]: 2
KINOMEscan CDK11B [4]: 0
KINOMEscan SIK1 [5]: 4
KINOMEscan MYO3B [6]: 17
KINOMEscan SRPK1 [7]: 0
